Test results taken from patent publication US5610139A, “Antimicrobial compositions and pharmaceutical preparations thereof” (Seikagaku Corporation, priority 1992, dated 1997).
Values after ≈ are worked out from the molar mass of the structure shown. Like-named read-outs stand apart in the source and are kept apart here. Where a SMILES comes first, the peptide text is derived from it. Bridges are numbered along the chain shown (N, C = ends).

Key:
MRSA No. 3-50 strain = format: cell-based, Staphylococcus aureus; conditions: for growth: MRSA No. 3-50; for MIC, single administration of the peptide: MRSA
Text: Synergistic antimicrobial activities by the combinations of tachyplesin I and β-lactam antibiotics or chloramphenicol antibiotics against above mentioned clinically isolated MRSAs were examined and the results against MRSA No. 3-50 strain are shown in the following Tables.

[1] = system: 55 strains of clinically isolated MRSA; format: cell-based, Staphylococcus aureus
Text: The MRSAs used for the experiments shown below were isolated as follows. Specimens of urine, sputa and pus of hospitalized patients in Nagoya University, School of Medicine Hospital were smeared and cultured on blood agar medium. Staphylococcus aureus was isolated and identified from the grown colonies. Their sensitivity were examined using BBL test disks containing one μg of oxacillin (BBL Microbiology System Co., Ltd.) and strains showing inhibitory zone of 10 mm or less were classified as MRSA. A total of 55 strains of MRSA Nos. 170, 199, 3-50, 3-53 and so forth were isolated. Their sensitivity were confirmed by an agar plate dilution method using Mueller-Hinton agar medium of BBL (BBL Microbiology System Co., Ltd.) containing 100, 50, 25, 12.5, 6.3, 3.2, 1.6 or 0.8 μg/ml of methicillin (Banyu Pharmaceutical Co., Ltd.).
MRSAs obtained by the preceding method were cultured in L medium (1% bactotrypton, 0.5% yeast extract, 0.5% NaCl, pH 7.2) overnight and diluted 40-fold with a phosphate buffered saline solution (PBS).
Separately, tachyplesin I was diluted by 2-fold method using M9 medium (a synthetic medium added with 1% casamino acid) or T broth (0.5% bactotrypton and 0.5% NaCl) to give concentrations of 200-0.4 μg/ml and poured in a 96 well microplate at 100 μl/well each.
The 40-fold diluted bacterial solution was further diluted 10-fold with the M9 medium or T broth and poured 100 μl each to the above wells and the combined solution was mixed to give final concentration of 100-0.2 μg/ml of tachyplesin I. The bacterial concentration was made approximately 10^6 cfu/well (cfu=colony forming unit).
The resultant mixed solutions of bacterial and tachyplesin I solutions were cultured overnight (18 hrs.) at 37° C. The growth of bacteria was determined by the turbidity of the medium and the minimum concentration required to inhibit their growth was used as the minimum inhibitory concentration (MIC).
MICs of various antimicrobial peptides derived from horseshoe crab against 55 strains of clinically isolated MRSA were determined by a similar method to that shown above.

[2] = system: artificial vesicles using inner membrane of E. coli; test: Action on membrane potential in artificial vesicles in vitro; format: biochemical
Text: The antimicrobial mechanisms of the peptides such as tachyplesins against MRSAs are supposed to be similar to those of against Escherichia coil and Salmonella spp. There is an energy producing mechanism by oxidative phosphorylation in cytoplasmic membrane of bacteria, which couples with membrane potential. The action mechanism against E. coli was modeled in artificial vesicles using inner membrane of E. coli and the action of tachyplesin I was investigated in vitro.

[3] = antibiotic 10 μg/ml alone (TAC-I 0 μg/ml)
[4] = antibiotic 20 μg/ml alone (TAC-I 0 μg/ml)
[5] = against 55 strains of clinically isolated MRSA

| SMILES | growth (MRSA No. 3-50 strain; [3]) | growth (MRSA No. 3-50 strain; [4]) | MIC [1, 5] [µg/mL] | MIC, single administration of the peptide (MRSA No. 3-50 strain) [µg/mL] | other results |
| --- | --- | --- | --- | --- | --- |
| CC1(C)S[C@@H]2[C@H](NC(=O)[C@H](N)c3ccccc3)C(=O)N2[C@H]1C(=O)O [ABPC, Ampicillin] | + | + |  |  |  |
| Cc1nnc(SCC2=C(C(=O)O)N3C(=O)[C@@H](NC(=O)Cn4cnnn4)[C@H]3SC2)s1 [CEZ, Cefazolin] | + | + |  |  | growth (MRSA No. 3-50 strain; antibiotic 40 μg/ml alone (TAC-I 0 μg/ml)): - |
| O=C(N[C@H](CO)[C@H](O)c1ccc([N+](=O)[O-])cc1)C(Cl)Cl [CP, Chloramphenicol] | + | + |  |  | growth (MRSA No. 3-50 strain; antibiotic 5 μg/ml alone (TAC-I 0 μg/ml)): + |
| CC(C)[C@@H]1NC(=O)[C@H](CCCNC(=N)N)NC(=O)[C@H](Cc2ccccc2)NC(=O)[C@@H](NC(=O)[C@H](Cc2c[nH]c3ccccc23)NC(=O)[C@H](CCCNC(=N)N)NC(=O)[C@@H](N)CCCNC(=N)N)CSSC[C@@H](C(=O)N[C@@H](CCCNC(=N)N)C(N)=O)NC(=O)[C@H](CCCCN)NC(=O)[C@H](CCCNC(=N)N)NC(=O)[C@H](Cc2ccc(O)cc2)NC(=O)[C@@H]2CSSC[C@H](NC1=O)C(=O)N[C@@H](Cc1ccc(O)cc1)C(=O)N[C@@H](CCCCN)C(=O)NCC(=O)N[C@@H](Cc1ccccc1)C(=O)N2 [Polyphemusin II] (H-RRWCFRVCYKGFCYRKCR-NH2; disulfide 4-17, 8-13) |  |  | 6.3 (≈ 2.6 µM) | 6.3 |  |
| CC[C@H](C)[C@@H]1NC(=O)CNC(=O)[C@H](CCCNC(=N)N)NC(=O)[C@H](Cc2ccc(O)cc2)NC(=O)[C@@H]2CSSC[C@H](NC1=O)C(=O)N[C@@H](Cc1ccc(O)cc1)C(=O)N[C@@H](CCCNC(=N)N)C(=O)N[C@@H](CCCCN)C(=O)N[C@H](C(=O)N[C@@H](CCCNC(=N)N)C(N)=O)CSSC[C@H](NC(=O)[C@H](Cc1c[nH]c3ccccc13)NC(=O)[C@@H](N)CCCNC(=N)N)C(=O)N[C@@H](Cc1ccccc1)C(=O)N[C@@H](CCCNC(=N)N)C(=O)N[C@@H](C(C)C)C(=O)N2 [Tachyplesin II] (H-RWCFRVCYRGICYRKCR-NH2; disulfide 3-16, 7-12; N-terminus and C-terminus assumed) |  |  | 3.2 (≈ 1.41 µM) |  |  |
| CC[C@H](C)[C@@H]1NC(=O)CNC(=O)[C@H](CCCNC(=N)N)NC(=O)[C@H](Cc2ccc(O)cc2)NC(=O)[C@@H]2CSSC[C@H](NC1=O)C(=O)N[C@@H](Cc1ccc(O)cc1)C(=O)N[C@@H](CCCNC(=N)N)C(=O)N[C@@H](CCCNC(=N)N)C(=O)N[C@H](C(=O)N[C@@H](CCCNC(=N)N)C(N)=O)CSSC[C@H](NC(=O)[C@H](Cc1c[nH]c3ccccc13)NC(=O)[C@@H](N)CCCCN)C(=O)N[C@@H](Cc1ccccc1)C(=O)N[C@@H](CCCNC(=N)N)C(=O)N[C@@H](C(C)C)C(=O)N2 [Tachyplesin I] (H-KWCFRVCYRGICYRRCR-NH2; disulfide 3-16, 7-12; N-terminus and C-terminus assumed) |  |  |  | 3.2 | MIC ([1]; 47 strains (85% of total 55 MRSA strains)): 6.3 µg/mL (≈ 2.78 µM); MIC ([1]; one strain (2% of total 55 MRSA strains)): 12.5 µg/mL (≈ 5.52 µM); MIC ([1]; seven strains (13% of total 55 MRSA strains)): 3.2 µg/mL (≈ 1.41 µM); growth (MRSA No. 3-50 strain; TAC-I 0.4 μg/ml alone (antibiotic 0 μg/ml)): +; growth (MRSA No. 3-50 strain; TAC-I 0.8 μg/ml alone (antibiotic 0 μg/ml)): +; growth (MRSA No. 3-50 strain; TAC-I 1.6 μg/ml alone (antibiotic 0 μg/ml)): +; effect on membrane potential generated in the cytoplasmic membrane [2]: depolarized the membrane potential |
